Target: T1, P2X7 receptor (Homo sapiens, UniProt Q99572)
T1 construct: host or cells: SH-SY5Y
T1 sequence (Q99572 1-595): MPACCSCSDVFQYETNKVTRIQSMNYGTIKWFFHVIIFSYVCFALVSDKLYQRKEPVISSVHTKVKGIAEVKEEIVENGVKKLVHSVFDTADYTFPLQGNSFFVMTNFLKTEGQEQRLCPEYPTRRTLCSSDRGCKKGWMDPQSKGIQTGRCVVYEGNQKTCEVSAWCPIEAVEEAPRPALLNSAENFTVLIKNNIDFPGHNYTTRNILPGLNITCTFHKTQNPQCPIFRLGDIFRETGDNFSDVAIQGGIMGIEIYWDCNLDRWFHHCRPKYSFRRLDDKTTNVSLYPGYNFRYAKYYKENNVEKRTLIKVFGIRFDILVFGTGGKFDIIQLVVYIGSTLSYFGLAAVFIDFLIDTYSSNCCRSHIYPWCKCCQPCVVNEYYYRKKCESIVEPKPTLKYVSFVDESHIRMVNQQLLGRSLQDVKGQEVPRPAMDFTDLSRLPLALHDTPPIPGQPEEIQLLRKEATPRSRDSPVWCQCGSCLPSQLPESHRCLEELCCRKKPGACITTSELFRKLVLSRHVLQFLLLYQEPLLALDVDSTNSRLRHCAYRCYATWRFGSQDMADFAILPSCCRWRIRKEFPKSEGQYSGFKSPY
Assay: P2X7 calcium mobilization assay, high throughput, antagonist activity (Example 4A)
Assay type: cell-based
Settings: not given
In short: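 100,000 cells/well, plated day -1. Dye 1 h → rinse → compound 1 h, RT → FLIPR^TETRA Ca2+ mobilization. Max RFU minus mean negative control (no agonist); mean agonist-well max as positive control.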

SMILES	IC50 [nM]
COCCC1CCN(C(=O)c2cn3c(C(=O)NCC45CC6CC(CC(C6)C4)C5)cccc3n2)CC1 [Compound 88, N-(adamantan-1-ylmethyl)-2-{[4-(2-methoxyethyl)piperidin-1-yl]carbonyl}imidazo[1,2-a]pyridine-5-carboxamide]	< 2000
CCCN(CCC)C(=O)c1cn2c(C(=O)NC[C@@H]3CC[C@H]4C[C@@H]3C4(C)C)cccc2n1 [Compound 476, 5-N-{[(1S,2R,5S)-6,6-dimethylbicyclo[3.1.1]hept-2-yl]methyl}-2-N,2-N-dipropylimidazo[1,2-a]pyridine-2,5-dicarboxamide]	< 2000

Same assay, conditions: 50% decrease in the fluorescence response of cells exposed to 80 μM 2′(3′)-O-(4-benzoyl-benzoyl)adenosine 5′-triphosphate; Example 4A; read-out: IC50

IC50 [nM]	SMILES
< 2000	CC(C)[C@@H]1CNCCN1C(=O)c1cn2c(C(=O)NCC34CC5CC(CC(C5)C3)C4)cccc2n1 [Compound 613, N-(adamantan-1-ylmethyl)-2-{[(2R)-2-isopropylpiperazin-1-yl]carbonyl}imidazo[1,2-a]pyridine-5-carboxamido]
< 2000	C[C@H]1CNCCN1C(=O)Cc1cn2c(C(=O)NC[C@@H]3CC[C@@H]4C[C@H]3C4(C)C)cccc2n1 [Compound 557, N-{[(1R,2R,5R)-6,6-dimethylbicyclo[3.1.1]hept-2-yl]methyl}-2-{2-[(2S)-2-methylpiperazin-1-yl]-2-oxoethyl}imidazo [1,2-a]pyridine-5-carboxamide]
< 2000	O=C(NCC12CC3CC(CC(C3)C1)C2)c1cccc2nc(C(=O)N3CCCNCC3)cn12 [Compound 608, N-(adamantan-1-ylmethyl)-2-(1,4-diazepan-1-ylcarbonyl)imidazo[1,2-a]pyridine-5-carboxamide]
< 2000	CC1(C)[C@@H]2CC[C@@H](CNC(=O)c3cccc4nc(CC(=O)NCC5CCCN5)cn34)[C@H]1C2 (stereo partly drawn) [Compound 590, N-{[(1R,2R,5R)-6,6-dimethylbicyclo[3.1.1]hept-2-yl]methyl}-2-{2-oxo-2-[(pyrrolidin-2-ylmethyl)amino]ethyl} imidazo[1,2-a]pyridine-5-carboxamide]

Same assay, conditions: 50% decrease in the fluorescence response of cells exposed to 80 μM of 2′(3′)-O-(4-benzoyl-benzoyl)adenosine 5′-triphosphate; Example 4A; read-out: IC50

IC50 [nM]	SMILES
< 2000	CC(C)N(C(=O)c1cn2c(C(=O)NCC34CC5CC(CC(C5)C3)C4)cccc2n1)C1CCN(C)CC1 [Compound 680, 5-N-(adamantan-1-ylmethyl)-2-N-isopropyl-2-N-(1-methylpiperidin-4-yl)imidazo[1,2-a]pyridine-2,5-dicarboxamide]
< 2000	O=C(NCC12CC3CC(CC(C3)C1)C2)c1cccc2nc(C(Cc3ccc(Cl)cc3)C(=O)O)cn12 (centres unmarked) [Compound 804, 2-{5-[(adamantan-1-ylmethyl)carbamoyl]imidazo[1,2-a]pyridin-2-yl}-3-(4-chlorophenyl) propanoic acid]
< 2000	CNC1CCN(C(=O)Cc2cn3c(C(=O)NCC45CC6CC(CC(C6)C4)C5)cccc3n2)C1 (centres unmarked) [Compound 690, N-(adamantan-1-ylmethyl)-2-{2-[3-(methylamino)pyrrolidin-1-yl]-2-oxoethyl}imidazo[1,2-a]pyridine-5-carboxamide]
< 2000	O=C(NCCN1CCOCC1)c1cn2c(C(=O)NCC34CC5CC(CC(C5)C3)C4)cccc2n1 [Compound 648, 5-N-(adamantan-1-ylmethyl)-2-N-(2-morpholin-4-ylethyl)imidazo[1,2-a]pyridine-2,5-dicarboxamide]
< 2000	CCOC(=O)CCc1cn2c(C(=O)NCC34CC5CC(CC(C5)C3)C4)cccc2n1 [Compound 756, ethyl 3-{5-[(adamantan-1-ylmethyl)carbamoyl]imidazo[1,2-a]pyridin-2-yl}propanoate]
< 2000	CCOC(=O)C(Cc1ccccn1)c1cn2c(C(=O)NCC34CC5CC(CC(C5)C3)C4)cccc2n1 (centres unmarked) [Compound 736, ethyl 2-{5-[(adamantan-1-ylmethyl)carbamoyl]imidazo[1,2-a]pyridin-2-yl}-3-pyridin-2-ylpropanoate]

SMILES	IC50 [nM]
CC(C)CC(CNC(=O)c1cccc2nc(CC(=O)N3CCCC(N(C)C)C3)cn12)c1ccccc1 (centres unmarked) [Compound 789, 2-{2-[3-(dimethylamino)piperidin-1-yl]-2-oxoethyl}-N-(4-methyl-2-phenylpentyl) imidazo[1,2-a] pyridine-5-carboxamide]	< 2000

Same assay, conditions: 50% decrease in the fluorescence response of cells exposed to 80 μM of 2′(3′)-O-(4-benzoyl-benzoyl)adenosine 5′-triphosphate; determined as in Example 4A; read-out: IC50

IC50 [nM]	SMILES
< 2000	CC(C)CC(CNC(=O)c1cccc2nc(C3CCC(C(=O)O)CC3)cn12)c1ccc(Cl)cc1 (centres unmarked) [Compound 969, 4-(5-{[2-(4-chlorophenyl)-4-methylpentyl]carbamoyl}imidazo[1,2-a]pyridin-2-yl)cyclohexane-carboxylic acid]
< 2000	CCOC(=O)Cc1cn2c(C(=O)NCC3(c4ccc(Cl)cc4)CCCCC3)cccc2n1 [Compound 914, ethyl [5-({[1-(4-chlorophenyl)cyclohexyl]methyl}carbamoyl)imidazo[1,2-a]pyridin-2-yl] acetate]
< 2000	Cc1ccc(C2(CNC(=O)c3cccc4nc(CN5CC[C@@H](N)C5)cn34)CCCCC2)cn1 [Compound 824, 2-{[(3R)-3-aminopyrrolidin-1-yl]methyl}-N-{[1-(6-methylpyridin-3-yl)cyclohexyl]methyl} imidazo[1,2-a] pyridine-5-carboxamide]
< 2000	O=C(NCC12CC3CC(CC(C3)C1)C2)c1cccc2nc(Cn3nnnc3N3CCOCC3)cn12 [Compound 828, N-(adamantan-1-ylmethyl)-2-[(5-morpholin-4-yl-1H-tetrazol-1-yl)methyl]imidazo [1,2-a]pyridine-5-carboxamide]

Same assay, conditions: SH-SY5Y cells; 50% decrease in fluorescence response to 80 μM BzATP; read-out: IC50

IC50 [nM]	SMILES
< 2000	O=C(NCC12CC3CC(CC(C3)C1)C2)c1cccc2nc(CN3CCC(O)C3)cn12 (centres unmarked) [Compound 134, N-(adamantan-1-ylmethyl)-2-[(3-hydroxypyrrolidin-1-yl)methyl]imidazo[1,2-a]pyridine-5-carboxamide]
< 2000	CC(=O)N[C@@H]1CCN(Cc2cn3c(C(=O)NCC45CC6CC(CC(C6)C4)C5)cccc3n2)C1 [Compound 70, 2-[(3-acetamidopyrrolidin-1-yl)methyl]-N-(adamantan-1-ylmethyl)imidazo[1,2-a]pyridine-5-carboxamide]
< 2000	CN(CC(C)(C)O)C(=O)Cc1cn2c(C(=O)NCC34CC5CC(CC(C5)C3)C4)cccc2n1 [Compound 57, N-(adamantan-1-ylmethyl)-2-{2-[(2-hydroxy-2-methyl-propyl)(meth-yl)amino]-2-oxoethyl}imidazo[1,2-a]pyridine-5-carboxamide]
< 2000	COCCC1CCCN(C(=O)Cc2cn3c(C(=O)NCC45CC6CC(CC(C6)C4)C5)cccc3n2)C1 (centres unmarked) [Compound 178, N-(adamantan-1-ylmethyl)-2-{2-[3-(2-methoxyethyl)piperidin-1-yl]-2-oxoethyl}imidazo[1,2-a]pyridine-5-carboxamide]
< 2000	CCC(=O)NCCc1cn2c(C(=O)NCC34CC5CC(CC(C5)C3)C4)cccc2n1 [Compound 201, N-(adamantan-1-ylmethyl)-2-[2-(propionylamino)eth-yl]imidazo[1,2-a]pyridine-5-carboxamide]
< 2000	O=C(NCC12CC3CC(CC(C3)C1)C2)c1cccc2nc(CCN3CCC(O)CC3)cn12 [Compound 116, 2-[2-(4-hydroxy-piperidin-1-yl)-ethyl]-imidazo[1,2-a]pyridine-5-carboxylic acid (adamantan-1-ylmethyl)-amide]
< 2000	COCC1CCCN(C(=O)Cc2cn3c(C(=O)NCC45CC6CC(CC(C6)C4)C5)cccc3n2)C1 (centres unmarked) [Compound 176, N-(adamantan-1-ylmethyl)-2-{2-[3-(methoxymethyl)piperidin-1-yl]-2-oxoethyl}imidazo[1,2-a]pyridine-5-carboxamide]
< 2000	O=C(NCC12CC3CC(CC(C3)C1)C2)c1cccc2nc(CC(=O)N3C[C@@H]4C[C@H]3CN4)cn12 [Compound 192, N-(adamantan-1-ylmethyl)-2-{2-[(1S,4S)-2,5-diazabicyclo[2.2.1]hept-2-yl]-2-oxoethyl}imidazo[1,2-a]pyridine-5-carboxamide]

Same assay, conditions: fluorescence response of cells exposed to 80 μM 2′(3′)-O-(4-benzoyl-benzoyl)adenosine 5′-triphosphate; Example 4A; read-out: IC50

IC50 [nM]	SMILES
< 2000	CCCN(C)C(=O)Cc1cn2c(C(=O)NCC(CC(C)C)c3ccccc3)cccc2n1 (centres unmarked) [Compound 246, N-(4-methyl-2-phenylpentyl)-2-{2-[methyl(propyl)amino]-2-oxoethyl)imidazo[1,2-a]pyridine-5-carboxamide]
< 2000	CC(C)[C@H]1CN(C(=O)c2cn3c(C(=O)NC[C@@H]4CC[C@H]5C[C@@H]4C5(C)C)cccc3n2)CCN1 [Compound 308]
< 2000	CC(C)CC(CNC(=O)c1cccc2nc(CC(=O)NCC(C)(C)C)cn12)c1ccccc1 (centres unmarked) [Compound 225, 2-{2-[(2,2-dimethylpropyl)amino]-2-oxoethyl}-N-(4-methyl-2-phenylpentyl) imidazo [1,2-a]pyridine-5-carboxamide]
< 2000	O=C(CC12CC3CC(CC(C3)C1)C2)Nc1cccc2nc(C(=O)N3CCC(F)(F)CC3)cn12 [Compound 388, 2-adamantan-l-yl-N-(2-[(4,4-difluoropiperidin-1-yl)carbonyl]imidazo [1,2-a]pyridin-5-yl}acetamide]

From US8431593B2, “Heteroaryl amide derivatives” (H. Lundbeck A/S, priority 2006, dated 2013)
